Common to all, as to format: in vivo
One experiment concerns Anthonomus grandis. As to the kind of experiment: Boll weevil (Anthonomus grandis) control, 96-well microtiter plate with insect diet and eggs. The settings on record: 120 h, sprayed onto insect diet, 5 days, visually assessed, read-out: mortality in comparison with untreated controls (egg and larval mortality). Here is the method: Boll Weevil (Anthonomus grandis)
For evaluating control of boll weevil (Anthonomus grandis) the test unit consisted of 96-well-microtiter plates containing an insect diet and 5-10 A. grandis eggs. The compounds were formulated using a solution containing 75% v/v water and 25% v/v DMSO. Different concentrations of formulated compounds were sprayed onto the insect diet at 5 μl, using a custom built micro atomizer, at two replications. After application, microtiter plates were incubated at about 25±1° C. and about 75±5% relative humidity for 5 days. Egg and larval mortality was then visually assessed.

The subject of a further experiment is Heliothis virescens. The experiment in a line: Tobacco budworm (Heliothis virescens) control, 96-well microtiter plate with insect diet and eggs. The settings on record: 120 h, sprayed onto insect diet, 5 days, visually assessed, read-out: mortality in comparison with untreated controls (egg and larval mortality). As to the method:
Tobacco Budworm (Heliothis virescens)
For evaluating control of tobacco budworm (Heliothis virescens) the test unit consisted of 96-well-microtiter plates containing an insect diet and 15-25 H. virescens eggs. The compounds were formulated using a solution containing 75% v/v water and 25% v/v DMSO. Different concentrations of formulated compounds were sprayed onto the insect diet at 10 μl, using a custom built micro atomizer, at two replications. After application, microtiter plates were incubated at about 28±1° C. and about 80±5% relative humidity for 5 days. Egg and larval mortality was then visually assessed.

In the next experiment the test system is Megoura viciae. The experiment in a line: Vetch aphid (Megoura viciae) control through contact or systemic means, broad bean leaf disks. The settings on record: foliar, 120 h, read-out: mortality in comparison with untreated controls (aphid mortality). As to the method:
Vetch Aphid (Megoura viciae)
For evaluating control of vetch aphid (Megoura viciae) through contact or systemic means the test unit consisted of 24-well-microtiter plates containing broad bean leaf disks.
The compounds were formulated using a solution containing 75% v/v water and 25% v/v DMSO. Different concentrations of formulated compounds were sprayed onto the leaf disks at 2.5 μl, using a custom built micro atomizer, at two replications. After application, the leaf disks were air-dried and 5-8 adult aphids placed on the leaf disks inside the microtiter plate wells. The aphids were then allowed to suck on the treated leaf disks and incubated at about 23±1° C. and about 50±5% relative humidity for 5 days. Aphid mortality and fecundity was then visually assessed.

The subject of another experiment is Myzus persicae. The experiment in a line: Green peach aphid (Myzus persicae) control through systemic means, artificial diet under membrane. The following applies: 72 h, read-out: mortality in comparison with untreated controls (aphid mortality). From the text:
Green Peach Aphid (Myzus persicae)
For evaluating control of green peach aphid (Myzus persicae) through systemic means the test unit consisted of 96-well-microtiter plates containing liquid artificial diet under an artificial membrane. The compounds were formulated using a solution containing 75% v/v water and 25% v/v DMSO. Different concentrations of formulated compounds were pipetted into the aphid diet, using a custom built pipetter, at two replications. After application, 5-8 adult aphids were placed on the artificial membrane inside the microtiter plate wells. The aphids were then allowed to suck on the treated aphid diet and incubated at about 23±1° C. and about 50±5% relative humidity for 3 days. Aphid mortality and fecundity was then visually assessed.

The mark [1] stands for this setting: 2500 ppm, sprayed onto leaf disks, 5 days, visually assessed.
Setting [2] is: 2500 ppm, pipetted into aphid diet, 3 days, visually assessed.

Read-outs that look alike come from different tables or passages of the source.

Usually mortality stands for the share of the test organisms that died.

For the compound `CC[n+]1c([O-])c(C(=O)C(F)(F)C(F)(F)F)n2c1SCC2c1ccc(Cl)nc1` (centres unmarked) [Compound C-6], the mortality at 2500 ppm in the experiment with Anthonomus grandis, in the experiment on Heliothis virescens, with Megoura viciae and in the experiment with Myzus persicae was over 75% in each case.
In the case of `C[n+]1c([O-])c(C(=O)C(=O)OCC(F)(F)F)n2c1SC[C@@H]2c1cnc(Cl)s1` [Compound C-9], the mortality at 2500 ppm in the experiment with Megoura viciae (setting [1]) and in the experiment on Myzus persicae (setting [2]) was over 75% in each case.
In the case of `CC[n+]1c([O-])c(C(=O)C(=O)OCC(F)(F)F)n2c1SCC2c1ccc(Cl)nc1` (centres unmarked) [Compound C-10], the mortality at 2500 ppm in the experiment with Megoura viciae and in the experiment with Myzus persicae was over 75% each time.
Turning to `CC[n+]1c([O-])c(C(C)=O)n2c1SCC2c1ccc(Cl)nc1` (centres unmarked) [Compound C-8], the mortality at 2500 ppm in the experiment on Anthonomus grandis, in the experiment with Megoura viciae and in the experiment on Myzus persicae was over 75% in each case.
As for `CC(=O)c1c([O-])[n+](C)c2n1C(c1cnc(Cl)s1)CS2` (centres unmarked) [Compound C-2], the mortality at 2500 ppm in the experiment with Megoura viciae and in the experiment with Myzus persicae was over 75% each time.
Turning to `CC[n+]1c([O-])c(C(=O)c2cccs2)n2c1SCC2c1ccc(Cl)nc1` (centres unmarked) [Compound C-7], the mortality at 2500 ppm in the experiment with Anthonomus grandis, with Megoura viciae and with Myzus persicae was over 75% each time.
As for `CCOC(=O)C(=O)C1=C(O)N(C)C2N(C)CC(c3cnc(Cl)s3)N12` (centres unmarked) [Compound C-12], the mortality at 2500 ppm in the experiment on Anthonomus grandis, in the experiment on Heliothis virescens and in the experiment on Myzus persicae was over 75% in each case.
For the compound `CCn1c([O-])c(C(=O)c2ccccc2)[n+]2c1SCC2c1ccc(Cl)nc1` (centres unmarked) [Compound C-1, 5-benzoyl-3-(6-chloro-3-pyridyl)-7-ethyl-2,3-dihydroimidazo[2,1-b]thiazol-4-ium-6-olate], the mortality at 2500 ppm with Megoura viciae and in the experiment on Myzus persicae was over 75% in each case.
`C[n+]1c([O-])c(C(=O)C(F)F)n2c1SCC2c1cnc(Cl)s1` (centres unmarked) [Compound C-3]: the mortality at 2500 ppm in the experiment with Heliothis virescens, with Megoura viciae and with Myzus persicae was over 75% in each case.
For `C[n+]1c([O-])c(C(=O)c2ccccc2)n2c1SCC2CC#N` (centres unmarked) [Compound C-4], the mortality at 2500 ppm in the experiment on Megoura viciae (setting [1]) and in the experiment with Myzus persicae (setting [2]) was over 75% in each case.

(Values after patent publication US20220202017A1, “MESOIONIC IMIDAZOLIUM COMPOUNDS AND DERIVATIVES FOR COMBATING ANIMAL PESTS” (BASF SE, priority 2019, published 2022).)
